# Assay results: ChEMBL document CHEMBL5260810, “Inhibition of bromodomain-containing protein 9 for the prevention of epigenetically-defined drug resistance” (Bioorg Med Chem Lett, 2017)
# pIC50: −log10 of the molar value. The source made the active and inactive calls. The rule behind the calls is not given here.
# Tests used:
# [1] = molecular target: T1, Bromodomain-containing protein 9 (Homo sapiens) (UniProt Q9H8M2); experiment: Inhibition of BRD9 in human PC-9 cells assessed as reduction in ALDH1A1 gene expression at 5 uM preincubated with erlotinib for 8 days followed by compound addition and measured after 24 hrs by RNA sequencing analysis; format: cell-based
# T1 sequence (whole entry): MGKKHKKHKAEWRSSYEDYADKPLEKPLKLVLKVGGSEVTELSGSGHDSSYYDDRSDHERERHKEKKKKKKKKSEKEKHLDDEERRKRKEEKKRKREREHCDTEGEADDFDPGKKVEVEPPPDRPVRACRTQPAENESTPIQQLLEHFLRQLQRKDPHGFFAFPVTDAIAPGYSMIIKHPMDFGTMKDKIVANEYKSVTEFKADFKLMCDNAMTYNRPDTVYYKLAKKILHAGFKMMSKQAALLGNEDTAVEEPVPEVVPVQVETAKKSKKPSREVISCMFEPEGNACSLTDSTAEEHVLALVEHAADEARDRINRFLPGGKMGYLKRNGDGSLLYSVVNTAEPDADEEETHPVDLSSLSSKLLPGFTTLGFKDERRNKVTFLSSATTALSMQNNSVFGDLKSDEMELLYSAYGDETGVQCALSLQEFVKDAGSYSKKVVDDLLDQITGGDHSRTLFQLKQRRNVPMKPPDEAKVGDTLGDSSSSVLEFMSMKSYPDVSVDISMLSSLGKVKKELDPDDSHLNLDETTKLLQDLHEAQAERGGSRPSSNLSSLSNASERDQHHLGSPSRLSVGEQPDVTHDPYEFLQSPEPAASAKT
# PANC-1 = experiment: Antiproliferative activity against human PANC-1 cells assessed as reduction in colony formation up to 20 uM supplemented with fresh medium containing compound every 3 days for 9 days by MTT staining based clonogenic assay; format: functional, cell-based; settings: time 9.0 day
# NCI-H23 = experiment: Antiproliferative activity against human NCI-H23 cells assessed as reduction in colony formation up to 20 uM supplemented with fresh medium containing compound every 3 days for 9 days by MTT staining based clonogenic assay; format: functional, cell-based; settings: time 9.0 day
# PC-9 [2] = experiment: Antiproliferative activity against human PC-9 cells assessed as reduction in colony formation upto 20 uM supplemented with fresh medium containing compound every 3 days for 9 days by MTT staining based clonogenic assay; format: functional, cell-based; settings: time 9.0 day
# [3] = molecular target: T1, Bromodomain-containing protein 9 (Homo sapiens); experiment: Inhibition of BRD9 in human PC-9 cells assessed as reduction in ALDH1A1 gene expression at 2 uM preincubated with erlotinib for 8 days followed by compound addition and measured after 24 hrs by RNA sequencing analysis; format: cell-based
# U-266 = experiment: Cytotoxicity against human U266B1 cells measured after 3 days; format: functional, cell-based; settings: U-266, 72 h
# [4] = Cytotoxicity against human OVCAR433 cells measured after 3 days; format: functional, cell-based; settings: OVCAR433, 72 h
# [5] = Cytotoxicity against human NCE-G 124 cells measured after 3 days; format: functional, cell-based; settings: NCE-G 124, 72 h
# [6] = Cytotoxicity against human UKE-1 cells measured after 3 days; format: functional, cell-based; settings: UKE1, 72 h
# PA-1 = experiment: Cytotoxicity against human PA-1 cells measured after 3 days; format: functional, cell-based; settings: PA-1, 72 h
# SU-DHL-5 = experiment: Cytotoxicity against human SU-DHL-5 cells measured after 3 days; format: functional, cell-based; settings: SU-DHL-5, 72 h
# [7] = Cytotoxicity against human PMF-ko14 cells measured after 3 days; format: functional, cell-based; settings: PMF-ko14, 72 h
# [8] = Cytotoxicity against human NCE-G 22 cells measured after 3 days; format: functional, cell-based; settings: NCE-G 22, 72 h
# SR = experiment: Cytotoxicity against human SR cells measured after 3 days; format: functional, cell-based; settings: 72 h
# [9] = Cytotoxicity against human COV413B cells measured after 3 days; format: functional, cell-based; settings: 72 h
# EB-3 = experiment: Cytotoxicity against human EB-3 cells measured after 3 days; format: functional, cell-based; settings: EB-3, 72 h
# [10] = Cytotoxicity against human Ri-1 cells measured after 3 days; format: functional, cell-based; settings: Ri-1, 72 h
# Daudi = experiment: Cytotoxicity against human Daudi cells measured after 3 days; format: functional, cell-based; settings: 72 h
# WSUDLCL2 = experiment: Cytotoxicity against human WSUDLCL2 cells measured after 3 days; format: functional, cell-based; settings: WSUDLCL2, 72 h
# PC-9 [11] = experiment: Cytotoxicity against human PC-9 cells assessed as reduction in drug tolerant population at 2 uM supplemented with fresh medium containing compound every 3 days for 9 days in presence of erlotinib by Beckman Coulter counting method relative to control; format: functional; parameters: scale not given: the % may be the effect or the level left; settings: time 9 day
# [12] = Cytotoxicity against human HCC89 cells measured after 3 days; format: functional, cell-based; settings: HCC89, 72 h
# ZR-75-1 = experiment: Cytotoxicity against human ZR-75-1 cells measured after 8 days; format: functional, cell-based; settings: ZR-75-1, 192 h
# HCC1419 = experiment: Cytotoxicity against human HCC1419 cells measured after 3 days; format: functional, cell-based; settings: HCC1419, 72 h
# [13] = Cytotoxicity against human ATRFLOX cells measured after 3 days; format: functional, cell-based; settings: 72 h
# BJAB = experiment: Cytotoxicity against human BJAB cells measured after 3 days; format: functional, cell-based; settings: 72 h
# Calu-1 = experiment: Cytotoxicity against human Calu-1 cells after 8 days; format: functional, cell-based; settings: Calu-1, 192 h
# [14] = Cytotoxicity against human NCE-G 141 cells measured after 3 days; format: functional, cell-based; settings: NCE-G 141, 72 h
# [15] = Cytotoxicity against human LS174T-HM7 cells measured after 3 days; format: functional, cell-based; settings: LS174T-HM7, 72 h
# [16] = Cytotoxicity against human HLF cells measured after 3 days; format: functional, cell-based; settings: 72 h
# [17] = Cytotoxicity against human LUDLU-1 cells measured after 3 days; format: functional, cell-based; settings: LUDLU-1, 72 h
# OAW-42 = experiment: Cytotoxicity against human OAW-42 cells measured after 3 days; format: functional, cell-based; settings: OAW-42, 72 h
# NCI-H1793 = experiment: Cytotoxicity against human NCI-H1793 cells measured after 8 days; format: functional, cell-based; settings: NCI-H1793, 192 h
# RMG-I = experiment: Cytotoxicity against human RMG-I cells measured after 3 days; format: functional, cell-based; settings: 72 h
# DB = experiment: Cytotoxicity against human DB cells measured after 3 days; format: functional, cell-based; settings: 72 h
# [18] = Cytotoxicity against human NCE-G 61 cells measured after 3 days; format: functional, cell-based; settings: NCE-G 61, 72 h
# COR-L47 = experiment: Cytotoxicity against human COR-L47 cells measured after 3 days; format: functional, cell-based; settings: COR-L47, 72 h
# OVCAR-3 = experiment: Cytotoxicity against human OVCAR-3 cells measured after 3 days; format: functional, cell-based; settings: OVCAR-3, 72 h
# [19] = Cytotoxicity against human Hs 38.T cells measured after 3 days; format: functional, cell-based; settings: 72 h
# [20] = molecular target: T1, Bromodomain-containing protein 9 (Homo sapiens); experiment: Binding affinity to BRD9 in human PC-9 cell lysate assessed as increase in thermal stabilization at 2 uM at 44 to 50 degreeC measured after 30 mins by CETSA; format: subcellular
# SNU-423 = experiment: Cytotoxicity against human SNU-423 cells measured after 3 days; format: functional, cell-based; settings: SNU-423, 72 h
# NALM-6 = experiment: Cytotoxicity against human NALM-6 cells measured after 3 days; format: functional, cell-based; settings: NALM-6, 72 h
# [21] = Cytotoxicity against human NCE-G 59 cells measured after 3 days; format: functional, cell-based; settings: NCE-G 59, 72 h
# DU-4475 = experiment: Cytotoxicity against human DU-4475 cells after 8 days; format: functional, cell-based; settings: DU-4475, 192 h
# [22] = Cytotoxicity against human KP-3L cells measured after 3 days; format: functional, cell-based; settings: 72 h
# MCF-10A = experiment: Cytotoxicity against human MCF-10A cells measured after 3 days; format: functional, cell-based; settings: 72 h
smiles,measurement,setting,value
C/C=C/Cn1cc(-c2ccc(C(C)(C)O)cc2OC)c2cc[nH]c2c1=O,inhibition,[1],Active
same,Activity,PANC-1,inactive
same,Activity,NCI-H23,inactive
same,Activity,PC-9 [2],Active
C/C=C/Cn1cc(-c2ccc(C(=O)N3CCOCC3)cc2)c2cc[nH]c2c1=O,inhibition,[3],Active
C/C=C/Cn1cc(-c2cc(OC)c(C(=O)N3CCOCC3)cc2OC)c2cc(C)[nH]c2c1=O,pIC50,U-266,5.30
same,pIC50,[4],5.30
same,pIC50,[5],5.30
same,pIC50,[6],5.30
same,pIC50,PA-1,5.30
same,pIC50,SU-DHL-5,5.30
same,pIC50,[7],5.30
same,pIC50,[8],5.30
same,pIC50,SR,5.30
same,pIC50,[9],5.30
same,pIC50,EB-3,5.30
same,pIC50,[10],5.30
same,pIC50,Daudi,5.30
same,pIC50,WSUDLCL2,5.30
same,Activity,PC-9 [11],>60%
same,pIC50,[12],5.30
same,pIC50,ZR-75-1,5.70
same,pIC50,HCC1419,5.30
same,pIC50,[13],5.30
same,pIC50,BJAB,5.30
same,pIC50,Calu-1,5.70
same,pIC50,[14],5.30
same,pIC50,[15],5.30
same,pIC50,[16],5.30
same,pIC50,[17],5.30
same,pIC50,OAW-42,5.30
same,pIC50,NCI-H1793,5.70
same,pIC50,RMG-I,5.30
same,pIC50,DB,5.30
same,pIC50,[18],5.30
same,pIC50,COR-L47,5.30
same,pIC50,OVCAR-3,5.30
same,pIC50,[19],5.30
same,Activity,[20],Active
same,pIC50,SNU-423,5.30
same,pIC50,NALM-6,5.30
same,pIC50,[21],5.30
same,pIC50,DU-4475,5.70
same,pIC50,[22],5.30
same,pIC50,MCF-10A,5.30
